Results taken from US20080262066A1, “Azole Derivatives as Cannabinoid CB1 Receptor Antagonists” (Green Cross Corporation, priority 2007, published 2008).

Biological target: T1, rat CB-1 receptor (Rattus norvegicus, UniProt P20272)
T1 construct: The tissue obtained from the brain of SD rats was homogenized; from tissue; host or cells: SD rat brain (membrane pellet of homogenate)
Test: rat CB-1 receptor binding protocol with [3H]CP-55940 on SD rat brain tissue
Conditions: [3H]CP-55940 displacement, SD rat brain homogenate, 30° C., 60 min

T1 sequence (P20272 whole entry): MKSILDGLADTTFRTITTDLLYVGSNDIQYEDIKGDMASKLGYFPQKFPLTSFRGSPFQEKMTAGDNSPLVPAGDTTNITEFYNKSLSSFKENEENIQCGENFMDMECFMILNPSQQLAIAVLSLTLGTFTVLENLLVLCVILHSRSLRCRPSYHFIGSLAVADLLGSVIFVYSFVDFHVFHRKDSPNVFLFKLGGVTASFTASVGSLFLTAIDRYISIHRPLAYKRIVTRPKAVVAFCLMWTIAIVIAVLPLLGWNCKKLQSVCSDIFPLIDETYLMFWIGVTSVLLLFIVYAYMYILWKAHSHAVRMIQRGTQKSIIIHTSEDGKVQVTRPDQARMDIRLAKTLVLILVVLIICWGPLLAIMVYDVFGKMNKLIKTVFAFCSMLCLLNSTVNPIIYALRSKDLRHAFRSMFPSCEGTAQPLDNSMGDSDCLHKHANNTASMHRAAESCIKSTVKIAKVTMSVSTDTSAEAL

IC50 (binding affinity for CB1 receptor) | SMILES
insoluble | Cc1c(C(=O)NC(=O)NCC2CCCCC2)nn(-c2ccc(Cl)cc2Cl)c1-c1ccc(Cl)cc1 [Example 18, 5-(4-Chlorophenyl)-N-(cyclohexylmethylcarbamoyl)-1-(2,4-dichlorophenyl)-4-methyl-1H-pyrazole-3-carboxamide]
insoluble | Cc1c(C(=O)NC(=O)NC(C)(C)C)nn(-c2ccc(Cl)cc2Cl)c1-c1ccc(Cl)cc1 [Example 20, N-(tert-butylcarbamoyl)-5-(4-chlorophenyl)-1-(2,4-dichlorophenyl)-4-methyl-1H-pyrazole-3-carboxamide]

Same assay, conditions: [3H]CP-55940 displacement, SD rat brain homogenate, 30° C., 60 min; read-out: IC50 (binding affinity for CB1 receptor)

IC50 [nM] | SMILES
24.8 | CCC(CC)C(=O)NC(=O)c1nn(-c2ccc(Cl)cc2Cl)c(-c2ccc(Cl)cc2)c1C [Example 1, 5-(4-Chlorophenyl)-1-(2,4-dichlorophenyl)-N-(2-ethylbutanoyl)-4-methyl-1H-pyrazole-3-carboxamide]
124 | Cc1c(C(=O)NC(=O)C2CC2)nn(-c2ccc(Cl)cc2Cl)c1-c1ccc(Cl)cc1 [Example 2, 5-(4-Chlorophenyl)-N-(cyclopropanecarbonyl)-1-(2,4-dichlorophenyl)-4-methyl-1H-pyrazole-3-carboxamide]
127 | Cc1c(C(=O)NC(=O)C2CCC2)nn(-c2ccc(Cl)cc2Cl)c1-c1ccc(Cl)cc1 [Example 3, 5-(4-Chlorophenyl)-N-(cyclobutanecarbonyl)-1-(2,4-dichlorophenyl)-4-methyl-1H-pyrazole-3-carboxamide]
67.2 | Cc1c(C(=O)NC(=O)C2CCCC2)nn(-c2ccc(Cl)cc2Cl)c1-c1ccc(Cl)cc1 [Example 4, 5-(4-Chlorophenyl)-N-(cyclopentanecarbonyl)-1-(2,4-dichlorophenyl)-4-methyl-1H-pyrazole-3-carboxamide]
30.4 | Cc1c(C(=O)NC(=O)C2CCCCC2)nn(-c2ccc(Cl)cc2Cl)c1-c1ccc(Cl)cc1 [Example 5, 5-(4-Chlorophenyl)-N-(cyclohexanecarbonyl)-1-(2,4-dichlorophenyl)-4-methyl-1H-pyrazole-3-carboxamide]
383 | CC(=O)NC(=O)c1nn(-c2ccc(Cl)cc2Cl)c(-c2ccc(Cl)cc2)c1C [Example 6, N-Acetyl-5-(4-chlorophenyl)-1-(2,4-dichlorophenyl)-4-methyl-1H-pyrazole-3-carboxamide]
43.7 | CCCC(=O)NC(=O)c1nn(-c2ccc(Cl)cc2Cl)c(-c2ccc(Cl)cc2)c1C [Example 7, N-Butyryl-5-(4-chlorophenyl)-1-(2,4-dichlorophenyl)-4-methyl-1H-pyrazole-3-carboxamide]
33.5 | CCCCCC(=O)NC(=O)c1nn(-c2ccc(Cl)cc2Cl)c(-c2ccc(Cl)cc2)c1C [Example 8, 5-(4-Chlorophenyl)-1-(2,4-dichlorophenyl)-N-hexanoyl-4-methyl-1H-pyrazole-3-carboxamide]
161 | Cc1c(C(=O)NC(=O)C(C)C)nn(-c2ccc(Cl)cc2Cl)c1-c1ccc(Cl)cc1 [Example 9, 5-(4-Chlorophenyl)-1-(2,4-dichlorophenyl)-N-isobutyryl-4-methyl-1H-pyrazole-3-carboxamide]
32.7 | Cc1c(C(=O)NC(=O)C(C)(C)C)nn(-c2ccc(Cl)cc2Cl)c1-c1ccc(Cl)cc1 [Example 10, 5-(4-Chlorophenyl)-1-(2,4-dichlorophenyl)-4-methyl-N-pivaloyl-1H-pyrazole-3-carboxamide]
21.2 | CCC(C)(C)C(=O)NC(=O)c1nn(-c2ccc(Cl)cc2Cl)c(-c2ccc(Cl)cc2)c1C [Example 11, 5-(4-Chlorophenyl)-1-(2,4-dichlorophenyl)-N-(2,2-dimethylbutanoyl)-4-methyl-1H-pyrazole-3-carboxamide]
53.4 | Cc1c(C(=O)NC(=O)CC(C)(C)C)nn(-c2ccc(Cl)cc2Cl)c1-c1ccc(Cl)cc1 [Example 12, 5-(4-Chlorophenyl)-1-(2,4-dichlorophenyl)-N-(3,3-dimethylbutanoyl)-4-methyl-1H-pyrazole-3-carboxamide]
26.9 | CCCC(CCC)C(=O)NC(=O)c1nn(-c2ccc(Cl)cc2Cl)c(-c2ccc(Cl)cc2)c1C [Example 13, 5-(4-Chlorophenyl)-1-(2,4-dichlorophenyl)-4-methyl-N-(2-propylpentanoyl)-1H-pyrazole-3-carboxamide]
43.1 | CCCCC(CC)C(=O)NC(=O)c1nn(-c2ccc(Cl)cc2Cl)c(-c2ccc(Cl)cc2)c1C (centres unmarked) [Example 14, 5-(4-Chlorophenyl)-1-(2,4-dichlorophenyl)-N-(2-ethylhexanoyl)-4-methyl-1H-pyrazole-3-carboxamide]
138 | CCCCCCNC(=O)NC(=O)c1nn(-c2ccc(Cl)cc2Cl)c(-c2ccc(Cl)cc2)c1C [Example 15, 5-(4-Chlorophenyl)-1-(2,4-dichlorophenyl)-N-(hexylcarbamoyl)-4-methyl-1H-pyrazole-3-carboxamide]
390 | Cc1c(C(=O)NC(=O)NC2CCCCC2)nn(-c2ccc(Cl)cc2Cl)c1-c1ccc(Cl)cc1 [Example 16, 5-(4-Chlorophenyl)-N-(cyclohexylcarbamoyl)-1-(2,4-dichlorophenyl)-4-methyl-1H-pyrazole-3-carboxamide]

IC50 [nM] | SMILES
750 | Cc1c(C(=O)NC(=O)NC2CCCCCC2)nn(-c2ccc(Cl)cc2Cl)c1-c1ccc(Cl)cc1 [Example 17, 5-(4-Chlorophenyl)-N-(cycloheptylcarbamoyl)-1-(2,4-dichlorophenyl)-4-methyl-1H-pyrazole-3-carboxamide]
253 | Cc1c(C(=O)NC(=O)NC(C)C)nn(-c2ccc(Cl)cc2Cl)c1-c1ccc(Cl)cc1 [Example 19, 5-(4-Chlorophenyl)-1-(2,4-dichlorophenyl)-N-(isopropylcarbamoyl)-4-methyl-1H-pyrazole-3-carboxamide]
146 | Cc1c(C(=O)NC(=O)NCc2ccccc2)nn(-c2ccc(Cl)cc2Cl)c1-c1ccc(Cl)cc1 [Example 22, N-(Benzylcarbamoyl)-5-(4-chlorophenyl)-1-(2,4-dichlorophenyl)-4-methyl-1H-pyrazole-3-carboxamide]
17.8 | Cc1c(C(=O)NC(=O)OCc2ccccc2)nn(-c2ccc(Cl)cc2Cl)c1-c1ccc(Cl)cc1 [Example 23, Benzyl 5-(4-chlorophenyl)-1-(2,4-dichlorophenyl)-4-methyl-1H-pyrazole-3-carbonylcarbamate]
99.7 | CCCCOC(=O)NC(=O)c1nn(-c2ccc(Cl)cc2Cl)c(-c2ccc(Cl)cc2)c1C [Example 24, Butyl 5-(4-chlorophenyl)-1-(2,4-dichlorophenyl)-4-methyl-1H-pyrazole-3-carbonylcarbamate]
82.5 | Cc1c(C(=O)NC(=O)OC(C)(C)C)nn(-c2ccc(Cl)cc2Cl)c1-c1ccc(Cl)cc1 [Example 25, tert-Butyl 5-(4-chlorophenyl)-1-(2,4-dichlorophenyl)-4-methyl-1H-pyrazole-3-carbonylcarbamate]
20 | CCC(CC)C(=O)NC(=O)c1nc(-c2ccc(Cl)cc2Cl)n(-c2ccc(Cl)cc2)c1C [Example 27, 1-(4-Chlorophenyl)-2-(2,4-dichlorophenyl)-N-(2-ethylbutanoyl)-5-methyl-1H-imidazole-4-carboxamide]
88 | Cc1c(C(=O)NC(=O)C2CCCCC2)nc(-c2ccc(Cl)cc2Cl)n1-c1ccc(Cl)cc1 [Example 28, 1-(4-Chlorophenyl)-N-(cyclohexanecarbonyl)-2-(2,4-dichlorophenyl)-5-methyl-1H-imidazole-4-carboxamide]
40 | Cc1c(C(=O)NC(=O)C(C)(C)C)nc(-c2ccc(Cl)cc2Cl)n1-c1ccc(Cl)cc1 [Example 29, 1-(4-Chlorophenyl)-2-(2,4-dichlorophenyl)-5-methyl-N-pivaloyl-1H-imidazole-4-carboxamide]
39.9 | CCC(C)(C)C(=O)NC(=O)c1nc(-c2ccc(Cl)cc2Cl)n(-c2ccc(Cl)cc2)c1C [Example 30, 1-(4-Chlorophenyl)-2-(2,4-dichlorophenyl)-N-(2,2-dimethylbutanoyl)-5-methyl-1H-imidazole-4-carboxamide]
75.4 | CCCC(CCC)C(=O)NC(=O)c1nc(-c2ccc(Cl)cc2Cl)n(-c2ccc(Cl)cc2)c1C [Example 31, 1-(4-Chlorophenyl)-2-(2,4-dichlorophenyl)-5-methyl-N-(2-propylpentanoyl)-1H-imidazole-4-carboxamide]
46.6 | CCCCC(CC)C(=O)NC(=O)c1nc(-c2ccc(Cl)cc2Cl)n(-c2ccc(Cl)cc2)c1C (centres unmarked) [Example 32, 1-(4-Chlorophenyl)-2-(2,4-dichlorophenyl)-N-(2-ethylhexanoyl)-5-methyl-1H-imidazole-4-carboxamide]
1180 | CCCCCCCC(=O)NCNC(=O)c1nn(-c2ccc(Cl)cc2Cl)c(-c2ccc(Cl)cc2)c1C [Example 33, 5-(4-Chlorophenyl)-1-(2,4-dichlorophenyl)-4-methyl-N-(octanamidomethyl)-1H-pyrazole-3-carboxamide]
150 | Cc1c(C(=O)NCNC(=O)C2CCC2)nn(-c2ccc(Cl)cc2Cl)c1-c1ccc(Cl)cc1 [Example 34, 5-(4-Chlorophenyl)-N-(cyclobutanecarboxamidomethyl)-1-(2,4-dichlorophenyl)-4-methyl-1H-pyrazole-3-carboxamide]
49.2 | Cc1c(C(=O)NCNC(=O)C2CCCCC2)nn(-c2ccc(Cl)cc2Cl)c1-c1ccc(Cl)cc1 [Example 35, 5-(4-Chlorophenyl)-N-(cyclohexanecarboxamidomethyl)-1-(2,4-dichlorophenyl)-4-methyl-1H-pyrazole-3-carboxamide]

SMILES | IC50 [nM]
Cc1c(C(=O)NC(=O)OCC(C)(C)C)nn(-c2ccc(Cl)cc2Cl)c1-c1ccc(Cl)cc1 [Example 26, Neopentyl 5-(4-chlorophenyl)-1-(2,4-dichlorophenyl)-4-methyl-1H-pyrazole-3-carbonylcarbamate] | 363

Same assay, conditions: [3H]CP-55940 displacement, SD rat brain homogenate; read-out: IC50 (binding affinity for CB1 receptor)

IC50 [nM] | SMILES
> 10000 | Cc1c(C(=O)NC(=O)Nc2ccccc2)nn(-c2ccc(Cl)cc2Cl)c1-c1ccc(Cl)cc1 [Example 21, 5-(4-Chlorophenyl)-1-(2,4-dichlorophenyl)-4-methyl-N-(phenylcarbamoyl)-1H-pyrazole-3-carboxamide]
